US10350256B2, “Compositions for the treatment of dermatological conditions, disorders or diseases” (Veit Hoermann Gesellschaft Für Unternehmenskommunikation mbH, priority 2012, dated 2019)

Legend:
Assay type in all cases: in vivo, human
psoriasis vulgaris = assay: Case reports, treatment of psoriasis vulgaris; details: Patient H, inpatient treatment
Source text: A patient suffering from psoriasis vulgaris affecting the whole body started a continuous treatment with black cumin oil for six months after several failed therapies with e.g. Daivobet gel.
A patient suffering from suberythrodermic psoriasis vulgaris with iridocyclitis for 13 years received inpatient treatment to intensify therapy after exacerbation for two weeks and severe itching.
Hyperkeratotic plaques were found between the fingers, discreet macerations between the toes, well defined, deeply red foci at the rima ani, and discreet redness at the penis. The psoriasis area and severity index (PASI) at admission was 36.
During inpatient treatment a therapy with fumaric acid was started; the patient further received Ceterizin and Atarax. […] Local treatments included treatment with dithranol vaseline and kopflanette. Further, the whole integument received baths with soft soap and Balneum-Hermal F. The capillitium received Silix washing oil and betamethasone.
The patient further used Curatoderm emulsion for the face. Intertrigines were treated with Candiohermal and Psorcutan ointment. The PASI at discharge was 14.7.
The further medication after discharge from the hospital included fumaric acid, Loratadin, Psorcutan ointment, urea-containing ointment, and Curatoderm emulsions. […]

psoriasis arthritis = assay: Case report, topical treatment of psoriasis arthritis; details: Patient D
Source text: (§1) Various patients have been treated topically with one of the compositions of Example 1 (Recipe N) and Example 2 (Recipe P). These patients were therapy-refractory, i.e. the patients had already been treated with standard therapies to no avail. […] Since the patients had been suffering from their respective diseases for a long time, the treatment with the compositions of the present invention seems to be effective in all stages of the diseases.
A patient suffering from psoriasis arthritis for more than 12 years received a treatment of the entire body with the composition of Example 2 (Recipe P). The composition was used regularly over two months in an amount of 150 g per day. The patient had already undergone several failed standard treatments, including cortisone treatment.

atopic eczema = assay: Case reports, topical treatment of atopic eczema; details: Patient B, earlier conventional therapies
Source text: as §1
A patient suffering from atopic eczema for all their life received a continuous treatment of the affected body parts (elbows, neck, face, legs) over one month with the composition of Example 1 (Recipe N) in an amount of 1 to 10 grams in two treatments per day.
A patient suffering from atopic eczema for more than 20 years received a treatment of the affected body parts (elbows, neck, face) with the composition of Example 1 (Recipe N) for two weeks in an amount of 3 grams in two treatments per day. […] The patient stated that they had never felt so good in 20 years.
A patient suffering from atopic eczema from early childhood on, including dryness and severe itching of the affected areas of the skin, received treatment with olive oil two times a week for two months. […] Accordingly, the treatment was discontinued.
A patient suffering from atopic eczema since birth received a continuous treatment with black cumin oil for two days.

| Structure (SMILES) | itching under treatment (psoriasis vulgaris) | outcome of earlier standard treatments (psoriasis arthritis) | outcome of earlier conventional therapy (atopic eczema) |
| --- | --- | --- | --- |
| O=C(O)COCCN1CCN(C(c2ccccc2)c2ccc(Cl)cc2)CC1 (stereo not drawn) [Ceterizin] | Itching remained | – | – |
| C[C@]12CCC(=O)C=C1CC[C@@H]1[C@@H]2C(=O)C[C@@]2(C)[C@H]1CC[C@]2(O)C(=O)CO [cortisone] | – | failed | without any success |
